Data: ChEMBL document CHEMBL1201862, “PubChem BioAssay data set” (2004)
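Compound exposure: 48 hours, 5 concentrations, 96-well plates. GI50 is the concentration that inhibits growth by half.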 Activity calls are given as the source filed them. Rule as the data show it: active = GI50 up to about 1.1 µM and inactive = higher.

Experiments:
Assay in all cases: DTP human tumour cell line panel, 48 h
[1] = system: 786-0
[2] = system: A498
[3] = system: A549
[4] = system: ACHN
[5] = system: BT-549
[6] = system: CAKI-1
[7] = system: CCRF-CEM
[8] = system: COLO 205
[9] = system: DU-145
[10] = system: EKVX
[11] = system: HCC 2998
[12] = system: HCT-116
[13] = system: HCT-15
[14] = system: HL-60
[15] = system: HOP-62
[16] = system: HT-29
[17] = system: Hs-578T
[18] = system: IGROV-1
[19] = system: K562
[20] = system: KM12
[21] = system: LOX IMVI
[22] = system: M14
[23] = system: MCF7
[24] = system: MDA-MB-231
[25] = system: MDA-MB-435
[26] = system: MDA-N
[27] = system: MOLT-4
[28] = system: Malme-3M
[29] = system: NCI-H226
[30] = system: NCI-H23
[31] = system: NCI-H460
[32] = system: NCI-H522
[33] = system: NCI/ADR-RES
[34] = system: OVCAR-3
[35] = system: OVCAR-4
[36] = system: OVCAR-5
[37] = system: OVCAR-8
[38] = system: RPMI-8226
[39] = system: SF-268
[40] = system: SF-295
[41] = system: SF-539
[42] = system: SK-MEL-28
[43] = system: SK-MEL-5
[44] = system: SK-OV-3
[45] = system: SN12C
[46] = system: SNB-19
[47] = system: SNB-75
[48] = system: SR
[49] = system: SW-620
[50] = system: T47D
[51] = system: TK-10
[52] = system: U-251
[53] = system: UACC-257
[54] = system: UACC-62
[55] = system: UO-31
[56] = system: HOP-92
[57] = system: PC-3
[58] = system: RXF 393
[59] = system: SK-MEL-2

Measured: GI50

CC1=C(C(=O)NNC(=O)c2ccccc2O)CC(C(=O)NNC(=O)c2ccccc2O)=C(C)N1
inactive: [1] 3.13 µM | [2] 1.79 µM | [7] 4.7 µM | [8] 16.9 µM | [10] 7.78 µM | [11] 13.7 µM | [15] 5.46 µM | [16] 7.93 µM | [21] 2.58 µM | [22] 2.22 µM | [24] 5 µM | [28] > 100 µM | [29] 1.79 µM | [30] 2.1 µM | [32] 2.72 µM | [34] 1.55 µM | [35] 9.4 µM | [36] 22.6 µM | [42] > 77.3 µM | [43] 2.06 µM | [44] 5.57 µM | [45] 5.83 µM | [49] 5.55 µM | [51] > 47.3 µM | [53] 27.2 µM
active: [3] 0.48 µM | [4] 0.424 µM | [5] 0.446 µM | [6] 0.993 µM | [9] 0.566 µM | [12] 0.435 µM | [14] 0.512 µM | [17] 0.197 µM | [18] 0.302 µM | [19] 0.338 µM | [20] 0.384 µM | [23] 0.612 µM | [25] 0.425 µM | [26] 0.336 µM | [27] 0.522 µM | [31] 0.533 µM | [33] 0.448 µM | [37] 0.845 µM | [38] 0.752 µM | [39] 0.22 µM | [40] 0.535 µM | [41] 0.796 µM | [46] 0.839 µM | [47] 0.292 µM | [48] 0.64 µM | [50] 0.498 µM | [52] 0.459 µM | [54] 0.389 µM | [55] 0.277 µM
0.649 µM: [13]

O=c1oc2ccccc2cc1-c1nc2ccccc2s1
29.6 µM: [13]
inactive: [1] 4.58 µM | [2] 13.4 µM | [3] 4.94 µM | [4] 3.51 µM | [5] 17.2 µM | [6] 4.92 µM | [8] 23.2 µM | [9] 14.2 µM | [10] 11.5 µM | [11] 37.2 µM | [12] 5.08 µM | [14] > 100 µM | [15] 6.14 µM | [56] 6.65 µM | [16] 11.2 µM | [17] 6.55 µM | [18] 3.33 µM | [19] 3.61 µM | [20] 6.89 µM | [21] 10.1 µM | [22] 16.5 µM | [24] 12 µM | [25] 5.36 µM | [26] 15.2 µM | [28] 2.2 µM | [29] 14.6 µM | [30] 15.6 µM | [31] 7.45 µM | [32] 6.47 µM | [33] 10 µM | [34] 6.4 µM | [35] 11.6 µM | [36] 23.3 µM | [37] 7.74 µM | [57] 17.2 µM | [38] 2.79 µM | [58] 11.3 µM | [39] 8.73 µM | [40] 8.57 µM | [41] 2.89 µM | [42] 21.2 µM | [43] 19 µM | [44] 10.1 µM | [47] 6.3 µM | [49] 14.3 µM | [50] 10.7 µM | [51] 12.6 µM | [52] 7.35 µM | [53] 28.1 µM | [54] 14.6 µM | [55] 5.83 µM
active: [48] 0.491 µM

Cc1c(Br)c(Br)c(C)[s+]1[O-]
12.4 µM: [13]
inactive: [1] 16.9 µM | [2] 27.4 µM | [3] 15.6 µM | [4] 19 µM | [5] 16.3 µM | [6] 13.7 µM | [7] 1.92 µM | [8] 2.57 µM | [10] 15.1 µM | [11] 18.4 µM | [12] 6 µM | [14] 3.2 µM | [15] 15.6 µM | [56] 45.9 µM | [16] 15.4 µM | [17] 28.5 µM | [18] 26.7 µM | [19] 25.6 µM | [20] 13.8 µM | [21] 11.1 µM | [22] 13.4 µM | [23] 25 µM | [24] 22.9 µM | [25] 9.16 µM | [26] 12.6 µM | [27] 3.48 µM | [28] 17.3 µM | [29] 28.4 µM | [30] 25.3 µM | [31] 14.6 µM | [32] 8.02 µM | [33] 29 µM | [34] 5.92 µM | [35] 26.2 µM | [36] 18 µM | [37] 21.6 µM | [57] 17.5 µM | [38] 3.8 µM | [39] 25.2 µM | [40] 20 µM | [41] 5.38 µM | [42] 17.6 µM | [59] 13.3 µM | [43] 10.4 µM | [44] 23.8 µM | [45] 11.8 µM | [46] 20.7 µM | [48] 3.28 µM | [49] 8.89 µM | [50] 34.9 µM | [51] 21.2 µM | [52] 11.6 µM | [53] 12.2 µM | [54] 20.4 µM | [55] 13.6 µM

CC(C)=C1C(=O)C[C@]2(C)C[C@H]3O[C@]3(C)CC[C@@H]3O[C@@]3(C)CC[C@@H]12
inactive: [1] > 50 µM | [2] > 50 µM | [3] > 50 µM | [4] > 50 µM | [5] > 50 µM | [6] > 50 µM | [7] > 50 µM | [8] > 50 µM | [9] > 50 µM | [10] > 50 µM | [11] > 50 µM | [12] > 50 µM | [14] > 50 µM | [15] > 50 µM | [56] > 50 µM | [16] > 50 µM | [17] > 50 µM | [18] > 50 µM | [19] 44.3 µM | [20] > 50 µM | [21] 17.5 µM | [22] > 50 µM | [23] > 50 µM | [24] > 50 µM | [25] > 50 µM | [27] > 50 µM | [29] > 50 µM | [30] > 50 µM | [31] > 50 µM | [32] 34 µM | [33] > 50 µM | [34] > 50 µM | [35] > 50 µM | [36] > 50 µM | [37] > 50 µM | [57] > 50 µM | [38] > 50 µM | [58] > 50 µM | [39] > 50 µM | [40] > 50 µM | [41] > 50 µM | [42] > 50 µM | [59] > 50 µM | [44] > 50 µM | [45] > 50 µM | [46] > 50 µM | [47] > 50 µM | [48] 34.5 µM | [49] > 50 µM | [50] > 50 µM | [51] > 50 µM | [52] > 50 µM | [53] > 50 µM | [54] > 50 µM | [55] 30.3 µM
> 50 µM: [13]

O=C(O)c1nc(-c2ccccn2)c(-c2ccccn2)nc1C(=O)O
active: [4] 0.678 µM | [11] 0.773 µM | [31] 0.719 µM
0.384 µM: [13]
inactive: [1] 2.61 µM | [2] 1.61 µM | [3] 1.12 µM | [5] 4.01 µM | [6] 2.92 µM | [7] 2.44 µM | [8] 2.47 µM | [9] 2.47 µM | [10] 1.88 µM | [12] 1.67 µM | [14] 2.25 µM | [15] 2.15 µM | [56] 9.51 µM | [16] 2.7 µM | [17] 19.1 µM | [18] 3.5 µM | [19] 3.66 µM | [20] 2.75 µM | [21] 2.07 µM | [22] 1.42 µM | [24] 9.82 µM | [25] 3.62 µM | [26] 2.2 µM | [27] 2.3 µM | [28] 1.66 µM | [29] 1.7 µM | [30] 5.3 µM | [32] 4.28 µM | [33] 2.75 µM | [34] 2.87 µM | [35] 2 µM | [36] 3.01 µM | [37] 3.44 µM | [57] 4.47 µM | [38] 2.86 µM | [58] 2.31 µM | [39] 3.31 µM | [40] 2.49 µM | [41] 3.38 µM | [42] 1.2 µM | [59] 4.95 µM | [43] 1.28 µM | [44] 3.77 µM | [45] 3.27 µM | [46] 5.04 µM | [47] 3.49 µM | [48] 2.03 µM | [49] 3.26 µM | [50] 5.19 µM | [51] 3.48 µM | [52] 1.77 µM | [53] 4.35 µM | [54] 2.1 µM | [55] 1.64 µM
